Laboratory results reported in patent US20230295234A1, “ANTIMICROBIAL PEPTIDOMIMETICS” (SPEXIS AG, priority 2020, published 2023).
Bridge positions count the residues as written; N and C are the ends. Square brackets hold non-standard residues; d marks the D form. Peptide text beside a SMILES is read from it. Gly(N-2-aminoethyl) = NCCNCC(=O)O; Hyp = O=C(O)[C@@H]1C[C@@H](O)CN1; Gly(N(CH2)3NH2) = NCCCNCC(=O)O; Pen = CC(C)(S)[C@H](N)C(=O)O; dDab = NCC[C@@H](N)C(=O)O; Dab = NCC[C@H](N)C(=O)O; Nlys = NCCCCNCC(=O)O

Columns and labels:
[1] = system: Escherichia coli ATCC 25922; conditions: ATCC 25922
Procedure, shortened: (§1)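 Activity is measured against peptides serially diluted two-fold in water with 0.002% final Polysorbate 80. The cells are in cation-adjusted MHII broth at roughly 5×10^5 CFU/mL, prepared from a 0.5 McFarland suspension in 0.85% NaCl.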

[2] = system: Escherichia coli MCR-1 Af 45; conditions: MCR-1 Af 45
Procedure, shortened: as §1

[3] = system: Klebsiella pneumoniae SSI3010; conditions: SSI3010
Procedure, shortened: as §1

[4] = system: human red blood cells (hRBC); test: Hemolysis of human red blood cells; assay type: cell-based; conditions: red cells of human, 1 h
Procedure, shortened: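 PBS-washed human red blood cells (20% v/v) were incubated with peptide at 200 μg/mL for 1 h at 37 °C with shaking. Supernatant OD was read at 540 nm after 8-fold dilution. Hemolysis is expressed as percent of the water control.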

Escherichia coli ATCC 25922 MIC [1] | Escherichia coli MCR-1 Af 45 MIC [2] | Klebsiella pneumoniae SSI3010 MIC [3] | SMILES | Hemolysis at 0.2 g/L [4]
0.25 µg/mL | 0.125 µg/mL | 0.25 µg/mL | CC[C@H](C)[C@H](NC(=O)[C@@H]1C[C@@H](O)CN1C(=O)[C@@H](NC(=O)CN(CCN)C(=O)CNCCCN)C(C)C)C(=O)N[C@H](C(=O)N[C@@H](Cc1ccc(O)cc1)C(=O)N[C@@H]1C(=O)N[C@@H](CC(N)=O)C(=O)N[C@@H](CCCNC(=N)N)C(=O)N[C@@H](CCN)C(=O)N[C@@H]([C@@H](C)O)C(=O)N[C@H](CCN)C(=O)N[C@@H](CCCCN)C(=O)N[C@H](C(=O)N[C@@H](Cc2ccc(O)cc2)C(=O)N[C@@H](CCCNC(=N)N)C(=O)N[C@@H](Cc2ccc(O)cc2)C(=O)O)CSSC1(C)C)[C@@H](C)O [Example 60, Norn-Ndab-Val-Hyp-Ile-Thr-Tyr-Pen-Asn-Arg-Dab-Thr-^DDab-Lys-Cys-Tyr-Arg-Tyr] (H-[Gly(N(CH2)3NH2)][Gly(N-2-aminoethyl)]V[Hyp]ITY[Pen]NR[Dab]T[dDab]KCYRY-OH; disulfide 8-15; N-terminus assumed) | 0%
0.25 µg/mL | 0.125 µg/mL | 0.125 µg/mL | CC[C@H](C)[C@H](NC(=O)[C@@H]1C[C@@H](O)CN1C(=O)[C@@H](NC(=O)CN(CCN)C(=O)CNCCCCN)C(C)C)C(=O)N[C@H](C(=O)N[C@@H](Cc1ccc(O)cc1)C(=O)N[C@@H]1C(=O)N[C@@H](CC(N)=O)C(=O)N[C@@H](CCCNC(=N)N)C(=O)N[C@@H](CCN)C(=O)N[C@@H]([C@@H](C)O)C(=O)N[C@H](CCN)C(=O)N[C@@H](CCCCN)C(=O)N[C@H](C(=O)N[C@@H](Cc2ccc(O)cc2)C(=O)N[C@@H](CCCNC(=N)N)C(=O)N[C@@H](Cc2ccc(O)cc2)C(=O)O)CSSC1(C)C)[C@@H](C)O [Example 61, Nlys-Ndab-Val-Hyp-Ile-Thr-Tyr-Pen-Asn-Arg-Dab-Thr-^DDab-Lys-Cys-Tyr-Arg-Tyr] (H-[Nlys][Gly(N-2-aminoethyl)]V[Hyp]ITY[Pen]NR[Dab]T[dDab]KCYRY-OH; disulfide 8-15) | 0%
0.25 µg/mL | 0.125 µg/mL | 0.25 µg/mL | CC[C@H](C)[C@H](NC(=O)CN(CCN)C(=O)[C@@H](NC(=O)CN(CCN)C(=O)[C@@H](N)CCCCN)C(C)C)C(=O)N[C@H](C(=O)N[C@@H](Cc1ccc(O)cc1)C(=O)N[C@@H]1C(=O)N[C@@H](CC(N)=O)C(=O)N[C@@H](CCCNC(=N)N)C(=O)N[C@@H](CCN)C(=O)N[C@@H]([C@@H](C)O)C(=O)N[C@H](CCN)C(=O)N[C@@H](CCCCN)C(=O)N[C@H](C(=O)N[C@@H](Cc2ccc(O)cc2)C(=O)N[C@@H](CCCNC(=N)N)C(=O)N[C@@H](Cc2ccc(O)cc2)C(=O)O)CSSC1(C)C)[C@@H](C)O [Example 62, Lys-Ndab-Val-Ndab-Ile-Thr-Tyr-Pen-Asn-Arg-Dab-Thr-^DDab-Lys-Cys-Tyr-Arg-Tyr] (H-K[Gly(N-2-aminoethyl)]V[Gly(N-2-aminoethyl)]ITY[Pen]NR[Dab]T[dDab]KCYRY-OH; disulfide 8-15) | 0%
0.0625 µg/mL | 0.0625 µg/mL | 0.125 µg/mL | CC[C@H](C)[C@H](NC(=O)[C@@H]1C[C@@H](O)CN1C(=O)[C@@H](NC(=O)[C@@H]1C[C@@H](O)CN1C(=O)[C@H](CCCCN)NC(=N)N)C(C)C)C(=O)N[C@H](C(=O)N[C@@H](Cc1ccc(O)cc1)C(=O)N[C@@H]1C(=O)N[C@@H](CC(N)=O)C(=O)N[C@@H](CCCNC(=N)N)C(=O)N[C@@H](CCN)C(=O)N[C@@H]([C@@H](C)O)C(=O)N[C@H](CCN)C(=O)N[C@@H](CCCCN)C(=O)N[C@H](C(=O)N[C@@H](CCN)C(=O)N[C@@H](CCCNC(=N)N)C(=O)N[C@@H](Cc2ccc(O)cc2)C(=O)O)CSSC1(C)C)[C@@H](C)O [Example 63, Gua-Lys-Hyp-Val-Hyp-Ile-Thr-Tyr-Pen-Asn-Arg-Dab-Thr-^DDab-Lys-Cys-Dab-Arg-Tyr] (HELM PEPTIDE1{[N=C(N)N[C@@H](CCCCN)C(=O)[*:2]].[Hyp].V.[Hyp].I.T.Y.[Pen].N.R.[Dab].T.[NCC[C@@H](N[*:1])C(=O)[*:2]].K.C.[Dab].R.Y}$PEPTIDE1,PEPTIDE1,8:R3-15:R3$$$V2.0) | 0%
0.0625 µg/mL | 0.125 µg/mL | 0.25 µg/mL | CCCC[C@H](NC(=O)[C@H](CCCNC(=N)N)NC(=O)[C@H](CCC(N)=O)NC(=O)[C@@H]1CSSC[C@H](NC(=O)[C@H](Cc2ccc(O)cc2)NC(=O)[C@@H](NC(=O)[C@@H](NC(=O)[C@@H]2CCCN2C(=O)[C@@H](NC(=O)[C@@H]2CCCN2C(=O)[C@H](CCCCN)NC(=O)[C@@H](N)CCCCN)C(C)C)[C@@H](C)CC)[C@@H](C)CC)C(=O)N[C@@H](CC(N)=O)C(=O)N[C@@H](CCCNC(=N)N)C(=O)N[C@@H](CCN)C(=O)N[C@@H]([C@@H](C)O)C(=O)N[C@H](CCN)C(=O)N[C@@H](CCN)C(=O)N1)C(=O)O [Example 64] (HELM PEPTIDE1{K.K.P.V.P.I.I.Y.C.N.R.[Dab].T.[NCC[C@@H](N[*:1])C(=O)[*:2]].[Dab].C.Q.R.[Nle]}$PEPTIDE1,PEPTIDE1,9:R3-16:R3$$$V2.0) | 0%
≤0.0625 µg/mL | 0.0625 µg/mL | 0.0625 µg/mL | CCCC[C@H](NC(=O)[C@H](CCCNC(=N)N)NC(=O)[C@H](CCCNC(=N)N)NC(=O)[C@@H]1CSSC[C@H](NC(=O)[C@H](Cc2ccc(O)cc2)NC(=O)[C@@H](NC(=O)[C@@H](NC(=O)[C@@H]2CCCN2C(=O)[C@@H](NC(=O)[C@@H]2CCCN2C(=O)[C@H](CCCCN)NC(=O)[C@@H](N)CCCCN)C(C)C)[C@@H](C)CC)[C@@H](C)CC)C(=O)N[C@@H](CC(N)=O)C(=O)N[C@@H](CCCNC(=N)N)C(=O)N[C@@H](CCN)C(=O)N[C@@H]([C@@H](C)O)C(=O)N[C@H](CCN)C(=O)N[C@@H](CCN)C(=O)N1)C(=O)O [Example 65] (HELM PEPTIDE1{K.K.P.V.P.I.I.Y.C.N.R.[Dab].T.[NCC[C@@H](N[*:1])C(=O)[*:2]].[Dab].C.R.R.[Nle]}$PEPTIDE1,PEPTIDE1,9:R3-16:R3$$$V2.0) | 0%
0.03125 µg/mL | 0.0625 µg/mL | 0.125 µg/mL | CCCC[C@H](NC(=O)[C@H](CCCNC(=N)N)NC(=O)[C@H](CCN)NC(=O)[C@@H]1CSSC[C@H](NC(=O)[C@H](Cc2ccc(O)cc2)NC(=O)[C@@H](NC(=O)[C@@H](NC(=O)[C@@H]2CCCN2C(=O)[C@@H](NC(=O)[C@@H]2CCCN2C(=O)[C@H](CCCCN)NC(=O)[C@@H](N)CCCCN)C(C)C)[C@@H](C)CC)[C@@H](C)CC)C(=O)N[C@@H](CC(N)=O)C(=O)N[C@@H](CCCNC(=N)N)C(=O)N[C@@H](CCN)C(=O)N[C@@H]([C@@H](C)O)C(=O)N[C@H](CCN)C(=O)N[C@@H](CCCCN)C(=O)N1)C(=O)O [Example 66] (HELM PEPTIDE1{K.K.P.V.P.I.I.Y.C.N.R.[Dab].T.[NCC[C@@H](N[*:1])C(=O)[*:2]].K.C.[Dab].R.[Nle]}$PEPTIDE1,PEPTIDE1,9:R3-16:R3$$$V2.0) | 0%
0.125 µg/mL | 0.25 µg/mL | 0.25 µg/mL | CCCC[C@H](NC(=O)[C@H](CCCNC(=N)N)NC(=O)[C@H](CCC(N)=O)NC(=O)[C@@H]1CSSC[C@H](NC(=O)[C@H](Cc2ccc(O)cc2)NC(=O)[C@@H](NC(=O)[C@@H](NC(=O)[C@@H]2CCCN2C(=O)[C@@H](NC(=O)[C@@H]2CCCN2C(=O)[C@H](CCCCN)NC(=O)[C@@H](N)CCCCN)C(C)C)[C@@H](C)CC)[C@@H](C)CC)C(=O)N[C@@H](CC(N)=O)C(=O)N[C@@H](CCCNC(=N)N)C(=O)N[C@@H](CCN)C(=O)N[C@@H]([C@@H](C)O)C(=O)N[C@H](CCN)C(=O)N[C@@H](CCCCN)C(=O)N1)C(=O)O [Example 67] (HELM PEPTIDE1{K.K.P.V.P.I.I.Y.C.N.R.[Dab].T.[NCC[C@@H](N[*:1])C(=O)[*:2]].K.C.Q.R.[Nle]}$PEPTIDE1,PEPTIDE1,9:R3-16:R3$$$V2.0) | 0%
0.03125 µg/mL | 0.0625 µg/mL | ≤0.125 µg/mL | CCCC[C@H](NC(=O)[C@H](CCCNC(=N)N)NC(=O)[C@H](CCCNC(=N)N)NC(=O)[C@@H]1CSSC[C@H](NC(=O)[C@H](Cc2ccc(O)cc2)NC(=O)[C@@H](NC(=O)[C@@H](NC(=O)[C@@H]2CCCN2C(=O)[C@@H](NC(=O)[C@@H]2CCCN2C(=O)[C@H](CCCCN)NC(=O)[C@@H](N)CCCCN)C(C)C)[C@@H](C)CC)[C@@H](C)CC)C(=O)N[C@@H](CC(N)=O)C(=O)N[C@@H](CCCNC(=N)N)C(=O)N[C@@H](CCN)C(=O)N[C@@H]([C@@H](C)O)C(=O)N[C@H](CCN)C(=O)N[C@@H](CCCCN)C(=O)N1)C(=O)O [Example 68] (HELM PEPTIDE1{K.K.P.V.P.I.I.Y.C.N.R.[Dab].T.[NCC[C@@H](N[*:1])C(=O)[*:2]].K.C.R.R.[Nle]}$PEPTIDE1,PEPTIDE1,9:R3-16:R3$$$V2.0) | 0%
